Key:
[1] = tested on: collagen induced arthritis; assay: Collagen induced arthritis (CIA), PGE2 production and TNFα levels; format: in vivo, black/57 mice; details: 250 mg/(kg/day) orally, 21 days, compared to Ibuprofen 500 mg/(kg/day)
Method: Male black/57 mice, age 8-10 weeks, were used in in vivo study of PGE2 production and TNFα levels in collagen induced arthritis (CIA) model.
Bovine CII (type II collagen CII, Sigma, St. Louis, Mo., USA) was dissolved in 0.1 M acetic acid overnight at 4° C. and was thereafter emulsified in an equal volume of complete Freund's adjuvant (Sigma). The mice were immunized intradermally at the base of the tail with 100 μl of emulsion containing 100 μg of CII. On day 21, mice were boosted intraperitoneally with 100 μg CII dissolved in phosphate buffered saline (PBS).
The tested conjugate or Ibuprofen (Sigma, Israel) were dissolved in 80% Cremophor EL:saline 80%:20%, respectively.
Mice were randomly selected and assigned to one of the following groups: tested conjugate (250 mg/(kg/day); n=4), Iboprofen (500 mg/ (kg/day); n=4) or vehicle (n=4). The tested conjugate and Ibuprofen were administered orally. Treatment was given daily for a period of 21 days.
Joint tissues were prepared as previously described for measuring the production of PGE2 and cytokines. […] PGE2 concentration was measured with a commercial radio immunoassay (RIA) kit (Amersham, UK) according to the manufacturer's instructions. […] Results were expressed as pg/ml of serum or supernatant from joint homogenate.

[2] = tested on: carrageenan-induced edema; assay: Carrageenan-induced paw edema in rats; format: in vivo, Sprague dawley rats; details: carrageenan 1 mg/paw, versus Ibuprofen, FIG. 4
Method: Exemplary conjugates were subjected to in vivo study of paw edema measurements in rats. Sprague dawley rats (150-200 grams) were used. Edema was induced by a single sub-plantar injection of carrageenan (1 mg/paw) into the left hind paw of the rat under light ether anesthesia. The total volume injected was 0.1 ml. The paw volume was measured immediately before the injection and at hourly intervals thereafter using a hydroplethysmometer (model 7150, Ugo Basile, Italy). The results were expressed either as the increase in paw volume (ml) calculated by subtracting the basal volume or by calculating the area under the time-course curve (AUC; ml h) for each group.
The anti-inflammatory activity of the conjugates was tested versus Ibuprofen, as a reference, on carrageenan-induced edema at different time intervals.

CCC=CCC=CCC=CCC=CCC=CCC=CCCC(=O)N1CC(O)CC1C(=O)O (stereo not drawn) [MWL001]
Prostaglandin E2 levels in the joints [1]: significant decrease
TNF-α levels [1]: significant decrease
anti-inflammatory effect (paw swelling volume) [2]: superior to Ibuprofen

From patent publication US20130158070A1, “CONJUGATES OF POLYUNSATURATED FATTY ACIDS AND AMINE-CONTAINING COMPOUNDS AND USES THEREOF” (priority 2010, published 2013)
